The source of these data is article PMC5218480 (PLoS ONE, 2017).

The test system of the experiment is MV-4-11 cells. In words: Gene expression microarray analysis (Affymetrix PrimeView) and GSEA. Format: cell-based, human. Set-up: RFU PODN (11730768_x_at) / Fold change /veh PODN (11730768_x_at) / RFU LINC00158 (11744669_a_at) / Fold change /veh LINC00158 (11744669_a_at) / RFU DUSP10 (11751237_a_at) / Fold change /veh DUSP10 (11751237_a_at) / RFU ID3 (11757404_x_at) / Fold change /veh ID3 (11757404_x_at) / RFU PLEKHG5 (11737974_s_at) / Fold change /veh PLEKHG5 (11737974_s_at) / RFU LRRC4B (11730491_at) / Fold change /veh LRRC4B (11730491_at) / RFU GIMAP4 (11747438_a_at) / Fold change /veh GIMAP4 (11747438_a_at) / RFU KRT8 (11758183_x_at) / Fold change /veh KRT8 (11758183_x_at) / RFU CNN1 (11734310_a_at) / Fold change /veh CNN1 (11734310_a_at) / RFU VPS37D (11726825_at) / Fold change /veh VPS37D (11726825_at) / RFU C10orf10 (11716522_x_at) / Fold change /veh C10orf10 (11716522_x_at) / RFU KIR2DL2 /// KIR2DL4 /// KIR2DL5A /// KIR2DL5B /// KIR2DS1 /// KIR2DS2 /// KIR2DS3 /// KIR2DS4 /// KIR3DL3 /// KIR3DL3 /// KIR3DS1 (11738374_at) / Fold change /veh KIR2DL2 /// KIR2DL4 /// KIR2DL5A /// KIR2DL5B /// KIR2DS1 /// KIR2DS2 /// KIR2DS3 /// KIR2DS4 /// KIR3DL3 /// KIR3DL3 /// KIR3DS1 (11738374_at) / RFU C1QL1 (11718748_at) / Fold change /veh C1QL1 (11718748_at) / RFU TMPRSS4 (11747572_a_at) / Fold change /veh TMPRSS4 (11747572_a_at) / RFU HAMP (11756126_x_at) / Fold change /veh HAMP (11756126_x_at) / RFU RNFT2 (11725882_a_at) / Fold change /veh RNFT2 (11725882_a_at) / RFU NR4A2 (11747474_a_at) / Fold change /veh NR4A2 (11747474_a_at) / RFU ABCC12 (11746883_a_at) / Fold change /veh ABCC12 (11746883_a_at) / RFU TMEM136 (11760407_x_at) / Fold change /veh TMEM136 (11760407_x_at) / RFU CLDN22 /// WWC2 (11732394_at) / Fold change /veh CLDN22 /// WWC2 (11732394_at) / RFU HLA-DPB1 (11760878_x_at) / Fold change /veh HLA-DPB1 (11760878_x_at) / RFU SPINT1 (11716480_a_at) / Fold change /veh SPINT1 (11716480_a_at) / RFU GAP43 (11754022_s_at) / Fold change /veh GAP43 (11754022_s_at) / RFU A4GNT (11735810_at) / Fold change /veh A4GNT (11735810_at) / RFU PRB3 (11715151_x_at) / Fold change /veh PRB3 (11715151_x_at) / RFU TUBB4B (11761932_at) / Fold change /veh TUBB4B (11761932_at) / RFU CAPN14 (11732068_a_at) / Fold change /veh CAPN14 (11732068_a_at) / RFU TMCC2 (11721928_a_at) / Fold change /veh TMCC2 (11721928_a_at) / RFU IRGQ (11745062_a_at) / Fold change /veh IRGQ (11745062_a_at) / RFU FAM174B (11720279_a_at) / Fold change /veh FAM174B (11720279_a_at) / RFU TMPRSS4 (11748680_a_at) / Fold change /veh TMPRSS4 (11748680_a_at) / RFU FAM212B (11763350_a_at) / Fold change /veh FAM212B (11763350_a_at) / RFU PLEKHG5 (11743358_a_at) / Fold change /veh PLEKHG5 (11743358_a_at) / RFU ZSCAN30 (11745921_a_at) / Fold change /veh ZSCAN30 (11745921_a_at) / RFU CMKLR1 (11741424_a_at) / Fold change /veh CMKLR1 (11741424_a_at) / RFU LOC101060620 /// MAPK8IP1 (11723275_at) / Fold change /veh LOC101060620 /// MAPK8IP1 (11723275_at) / RFU SPTSSB (11747773_x_at) / Fold change /veh SPTSSB (11747773_x_at) / RFU PRSS12 (11739890_at) / Fold change /veh PRSS12 (11739890_at) / RFU BIN1 (11741810_x_at) / Fold change /veh BIN1 (11741810_x_at) / RFU WNT11 (11732464_a_at) / Fold change /veh WNT11 (11732464_a_at) / RFU C10orf10 (11716521_a_at) / Fold change /veh C10orf10 (11716521_a_at) / RFU C5orf56 (11738089_at) / Fold change /veh C5orf56 (11738089_at) / RFU CYB561 (11721691_x_at) / Fold change /veh CYB561 (11721691_x_at) / RFU ANKRD19P (11752326_a_at) / Fold change /veh ANKRD19P (11752326_a_at) / RFU OR2T12 /// OR2T33 /// OR2T8 (11738714_s_at) / Fold change /veh OR2T12 /// OR2T33 /// OR2T8 (11738714_s_at) / RFU VCAN (11748164_a_at) / Fold change /veh VCAN (11748164_a_at) / RFU JSRP1 (11732532_at) / Fold change /veh JSRP1 (11732532_at) / RFU KRTAP10-11 (11738290_x_at) / Fold change /veh KRTAP10-11 (11738290_x_at) / RFU MYO3A (11730013_a_at) / Fold change /veh MYO3A (11730013_a_at) / RFU EBF3 (11725865_a_at) / Fold change /veh EBF3 (11725865_a_at) / RFU CAMK2N1 (11719241_x_at) / Fold change /veh CAMK2N1 (11719241_x_at) / RFU C5orf56 (11738088_a_at) / Fold change /veh C5orf56 (11738088_a_at) / RFU OLFML3 (11715873_a_at) / Fold change /veh OLFML3 (11715873_a_at) / RFU LOC100653217 /// NTM (11731650_a_at) / Fold change /veh LOC100653217 /// NTM (11731650_a_at) / RFU MAPK11 (11762145_a_at) / Fold change /veh MAPK11 (11762145_a_at) / RFU FIZ1 (11724087_x_at) / Fold change /veh FIZ1 (11724087_x_at) / RFU OASL (11726364_x_at) / Fold change /veh OASL (11726364_x_at) / RFU SOX15 (11748057_x_at) / Fold change /veh SOX15 (11748057_x_at) / RFU CD79A (11719716_a_at) / Fold change /veh CD79A (11719716_a_at) / RFU HIST1H1D (11736915_at) / Fold change /veh HIST1H1D (11736915_at) / RFU CASKIN2 (11723855_a_at) / Fold change /veh CASKIN2 (11723855_a_at) / RFU LOC730098 (11760151_x_at) / Fold change /veh LOC730098 (11760151_x_at) / RFU OR4N2 (11742367_at) / Fold change /veh OR4N2 (11742367_at) / RFU PRRT2 (11749266_a_at) / Fold change /veh PRRT2 (11749266_a_at) / RFU SNX32 (11753110_a_at) / Fold change /veh SNX32 (11753110_a_at) / RFU CDHR5 (11726645_a_at) / Fold change /veh CDHR5 (11726645_a_at) / RFU RCAN1 (11760418_a_at) / Fold change /veh RCAN1 (11760418_a_at) / RFU FAM167A (11723789_a_at) / Fold change /veh FAM167A (11723789_a_at) / RFU FAM26E (11764081_at) / Fold change /veh FAM26E (11764081_at) / RFU ISYNA1 (11749810_s_at) / Fold change /veh ISYNA1 (11749810_s_at) / RFU ACY1 (11761880_at) / Fold change /veh ACY1 (11761880_at) / RFU 11764098_at / Fold change /veh 11764098_at / RFU SAMD14 (11745864_x_at) / Fold change /veh SAMD14 (11745864_x_at) / RFU NPB (11741838_a_at) / Fold change /veh NPB (11741838_a_at) / RFU TMPRSS6 (11731388_a_at) / Fold change /veh TMPRSS6 (11731388_a_at) / RFU KRTAP10-2 (11738614_at) / Fold change /veh KRTAP10-2 (11738614_at) / RFU ARHGAP8 /// PRR5-ARHGAP8 (11727945_x_at) / Fold change /veh ARHGAP8 /// PRR5-ARHGAP8 (11727945_x_at) / RFU KRTAP5-7 /// NADSYN1 (11734609_at) / Fold change /veh KRTAP5-7 /// NADSYN1 (11734609_at) / RFU RASL12 (11751679_a_at) / Fold change /veh RASL12 (11751679_a_at) / RFU CDKN2B (11736163_a_at) / Fold change /veh CDKN2B (11736163_a_at) / RFU PRF1 (11729649_at) / Fold change /veh PRF1 (11729649_at) / RFU, ZNF638 /// ZNF638-IT1 / Fold change vs veh, ZNF638 /// ZNF638-IT1 / RFU, PANK3 / Fold change vs veh, PANK3 / RFU, SH3YL1 / Fold change vs veh, SH3YL1 / RFU, ZEB2 / Fold change vs veh, ZEB2 / RFU, NRIP1 / Fold change vs veh, NRIP1 / RFU, PTTG1IP / Fold change vs veh, PTTG1IP / RFU, CAPN2 / Fold change vs veh, CAPN2 / RFU, MED14 / Fold change vs veh, MED14 / RFU, SNORA58 / Fold change vs veh, SNORA58 / RFU, C1orf63 / Fold change vs veh, C1orf63 / RFU, LRRFIP1 / Fold change vs veh, LRRFIP1 / RFU, NDUFAF7 / Fold change vs veh, NDUFAF7 / RFU, SLC12A2 / Fold change vs veh, SLC12A2 / RFU, IBTK / Fold change vs veh, IBTK / RFU, ESF1 / Fold change vs veh, ESF1 / Fold change vs veh, TMEM50B / RFU, TAOK1 / Fold change vs veh, TAOK1 / RFU, ACBD3 / Fold change vs veh, ACBD3 / RFU, TMA16 / Fold change vs veh, TMA16 / RFU, RWDD3 / Fold change vs veh, RWDD3 / RFU, BCAT1 / Fold change vs veh, BCAT1 / RFU, EDEM3 / Fold change vs veh, EDEM3 / RFU, TMEM33 / Fold change vs veh, TMEM33 / RFU, WDR75 / Fold change vs veh, WDR75 / RFU, AHCTF1 / Fold change vs veh, AHCTF1 / RFU, TFRC / Fold change vs veh, TFRC / RFU, ZDHHC17 / Fold change vs veh, ZDHHC17 / RFU, NOM1 / Fold change vs veh, NOM1 / RFU, ARL8B / Fold change vs veh, ARL8B / RFU, ZBTB11 / Fold change vs veh, ZBTB11 / RFU, TAMM41 / Fold change vs veh, TAMM41 / RFU, KIAA1704 /// LOC100996395 / Fold change vs veh, KIAA1704 /// LOC100996395 / RFU, ING1 / Fold change vs veh, ING1 / RFU, TRMT61B / Fold change vs veh, TRMT61B / RFU, FUBP3 / Fold change vs veh, FUBP3 / RFU, TP53 / Fold change vs veh, TP53 / RFU, TNKS2 / Fold change vs veh, TNKS2 / RFU, ZFP14 / Fold change vs veh, ZFP14 / RFU, ACTR2 / Fold change vs veh, ACTR2 / RFU, PPP3R1 / Fold change vs veh, PPP3R1 / RFU, PIK3R1 / Fold change vs veh, PIK3R1 / RFU, HNRNPA1 / Fold change vs veh, HNRNPA1 / RFU, RNF170 / Fold change vs veh, RNF170 / RFU, ZNF28 / Fold change vs veh, ZNF28 / RFU, RNGTT / Fold change vs veh, RNGTT / RFU, OGT / Fold change vs veh, OGT / RFU, BRD1 / Fold change vs veh, BRD1 / RFU, MARS / Fold change vs veh, MARS / RFU, ZNF655 / Fold change vs veh, ZNF655 / RFU, FAHD1 / Fold change vs veh, FAHD1 / RFU, BDP1 / Fold change vs veh, BDP1 / RFU, LRRCC1 / Fold change vs veh, LRRCC1 / RFU, ARID1A / Fold change vs veh, ARID1A / RFU, ZNF146 / Fold change vs veh, ZNF146 / RFU, ZNF330 / Fold change vs veh, ZNF330 / RFU, GPN3 / Fold change vs veh, GPN3 / RFU, C9orf123 / Fold change vs veh, C9orf123 / RFU, N4BP2L2 / Fold change vs veh, N4BP2L2 / RFU, ARFIP1 / Fold change vs veh, ARFIP1 / RFU, FAM179B / Fold change vs veh, FAM179B / RFU, BCL10 / Fold change vs veh, BCL10 / RFU, UHRF1BP1L / Fold change vs veh, UHRF1BP1L / RFU, BET1 / Fold change vs veh, BET1 / RFU, CNOT2 / Fold change vs veh, CNOT2 / RFU, ZNF268 / Fold change vs veh, ZNF268 / Fold change vs veh, ZNF507 / RFU, DGCR2 / Fold change vs veh, DGCR2 / RFU, WDSUB1 / Fold change vs veh, WDSUB1 / Fold change vs veh, HSP90B1 /// MIR3652 / RFU, ADSS / Fold change vs veh, ADSS / RFU, GK / Fold change vs veh, GK / RFU, ZNF148 / Fold change vs veh, ZNF148 / RFU, TAF9 / Fold change vs veh, TAF9 / RFU, SLC1A5 / Fold change vs veh, SLC1A5 / RFU, SLMO2 / Fold change vs veh, SLMO2 / RFU, ABCC4 / Fold change vs veh, ABCC4 / RFU, LOC101060439 /// RAP1B / Fold change vs veh, LOC101060439 /// RAP1B / RFU, RFX7 / Fold change vs veh, RFX7 / RFU, GTPBP10 / Fold change vs veh, GTPBP10 / RFU, CNEP1R1 / Fold change vs veh, CNEP1R1 / RFU, BIVM-ERCC5 /// ERCC5 / Fold change vs veh, BIVM-ERCC5 /// ERCC5 / RFU, ILF3 / Fold change vs veh, ILF3 / RFU 11762660_at / Fold change /veh 11762660_at / RFU VCAN (11757783_s_at) / Fold change /veh VCAN (11757783_s_at) / RFU DDX43 (11728927_at) / Fold change /veh DDX43 (11728927_at) / RFU KRT8 (11758188_x_at) / Fold change /veh KRT8 (11758188_x_at) / RFU NKD1 (11759106_at) / Fold change /veh NKD1 (11759106_at) / RFU SRD5A1 (11742802_a_at) / Fold change /veh SRD5A1 (11742802_a_at) / RFU TPSAB1 /// TPSB2 (11721975_s_at) / Fold change /veh TPSAB1 /// TPSB2 (11721975_s_at) / RFU GSTM3 (11746129_a_at) / Fold change /veh GSTM3 (11746129_a_at) / RFU IL23R (11737362_x_at) / Fold change /veh IL23R (11737362_x_at) / RFU TMEM51 (11727254_a_at) / Fold change /veh TMEM51 (11727254_a_at) / RFU PIWIL2 (11732686_x_at) / Fold change /veh PIWIL2 (11732686_x_at) / RFU ORM1 (11744905_x_at) / Fold change /veh ORM1 (11744905_x_at) / RFU CCDC152 (11743942_at) / Fold change /veh CCDC152 (11743942_at) / RFU ECM1 (11717891_a_at) / Fold change /veh ECM1 (11717891_a_at) / RFU IL23R (11748794_a_at) / Fold change /veh IL23R (11748794_a_at) / RFU TNFAIP8L3 (11732012_x_at) / Fold change /veh TNFAIP8L3 (11732012_x_at) / RFU MBOAT4 (11741988_at) / Fold change /veh MBOAT4 (11741988_at) / RFU 11764193_at / Fold change /veh 11764193_at / RFU TMEM53 (11763286_at) / Fold change /veh TMEM53 (11763286_at) / RFU MAGEB2 (11727129_at) / Fold change /veh MAGEB2 (11727129_at) / RFU TMEM200A (11744735_a_at) / Fold change /veh TMEM200A (11744735_a_at) / RFU CCDC152 (11751479_a_at) / Fold change /veh CCDC152 (11751479_a_at) / RFU FAM211A (11726209_a_at) / Fold change /veh FAM211A (11726209_a_at) / RFU RGS16 (11746705_a_at) / Fold change /veh RGS16 (11746705_a_at) / RFU VCAN (11755009_s_at) / Fold change /veh VCAN (11755009_s_at) / RFU RHOB (11743442_s_at) / Fold change /veh RHOB (11743442_s_at) / RFU RGS16 (11720943_a_at) / Fold change /veh RGS16 (11720943_a_at) / RFU RGS16 (11720944_at) / Fold change /veh RGS16 (11720944_at) / RFU, VPS4B / Fold change vs veh, VPS4B / RFU, CREB1 / Fold change vs veh, CREB1 / RFU, DNAJC13 / Fold change vs veh, DNAJC13 / RFU, GNAQ / Fold change vs veh, GNAQ / RFU, CDK5R1 / Fold change vs veh, CDK5R1 / RFU, ZRANB3 / Fold change vs veh, ZRANB3 / RFU, CUL4A / Fold change vs veh, CUL4A / RFU, CCNY / Fold change vs veh, CCNY / RFU, UFL1 / Fold change vs veh, UFL1 / RFU, COG3 / Fold change vs veh, COG3 / RFU, DIAPH2 / Fold change vs veh, DIAPH2 / RFU, SKA2 / Fold change vs veh, SKA2 / RFU, AFF3 / Fold change vs veh, AFF3 / RFU, LMF1 / Fold change vs veh, LMF1 / RFU, IPO11 / Fold change vs veh, IPO11 / RFU, DFFB / Fold change vs veh, DFFB / RFU, FOXP1 / Fold change vs veh, FOXP1 / RFU, CARD8 / Fold change vs veh, CARD8 / RFU, STRN3 / Fold change vs veh, STRN3 / RFU, ADK / Fold change vs veh, ADK / RFU, RASSF2 / Fold change vs veh, RASSF2 / RFU, WIPF1 / Fold change vs veh, WIPF1 / RFU, LARP1B / Fold change vs veh, LARP1B / RFU, RASA1 / Fold change vs veh, RASA1 / RFU, RB1 / Fold change vs veh, RB1 / RFU, PPFIA1 / Fold change vs veh, PPFIA1 / RFU, MAT2A / Fold change vs veh, MAT2A / RFU, CCT5 / Fold change vs veh, CCT5 / RFU, WDR92 / Fold change vs veh, WDR92 / RFU, CUX1 / Fold change vs veh, CUX1 / RFU, TTC7A / Fold change vs veh, TTC7A / RFU, TMEM135 / Fold change vs veh, TMEM135 / RFU, DEPTOR / Fold change vs veh, DEPTOR / RFU, CPM / Fold change vs veh, CPM / RFU, DNAJB6 / Fold change vs veh, DNAJB6 / RFU, CACNA2D3 / Fold change vs veh, CACNA2D3 / RFU, DTX4 / Fold change vs veh, DTX4 / RFU, TFCP2 / Fold change vs veh, TFCP2 / RFU, GMCL1 /// GMCL1P1 / Fold change vs veh, GMCL1 /// GMCL1P1 / RFU, AEBP2 / Fold change vs veh, AEBP2 / RFU, SNHG1 /// SNORD22 /// SNORD25 /// SNORD26 /// SNORD27 /// SNORD28 /// SNORD29 /// SNORD31 / Fold change vs veh, SNHG1 /// SNORD22 /// SNORD25 /// SNORD26 /// SNORD27 /// SNORD28 /// SNORD29 /// SNORD31 / Fold change (Aza/veh), C12orf56 (ProbeSet 11735607_a_at) / Fold change (ACY-1035/veh), C12orf56 (ProbeSet 11735607_a_at) / Fold change (Aza/veh), FGFR1OP (ProbeSet 11751329_s_at) / Fold change (ACY-1035/veh), FGFR1OP (ProbeSet 11751329_s_at) / Fold change (Aza/veh), VPS36 (ProbeSet 11739960_a_at) / Fold change (ACY-1035/veh), VPS36 (ProbeSet 11739960_a_at) / RFU SYPL1 (11715823_x_at) / Fold change /veh SYPL1 (11715823_x_at) / RFU IGFBP7 (11715501_s_at) / Fold change /veh IGFBP7 (11715501_s_at) / RFU REEP3 (11722064_at) / Fold change /veh REEP3 (11722064_at) / RFU IGLL1 (11728026_x_at) / Fold change /veh IGLL1 (11728026_x_at): dose or concentration left out as unconfirmed. The conditions noted are these: ProbeSet 11743882_a_at; LIST D.

With `Nc1ccc(-c2cccs2)cc1NC(=O)c1ccc2c(c1)cc(C1CC1)n2CCN1CCOCC1` [ACY-1035], the “Fold change vs veh, STRN3” value was 0.92.
